# Laboratory results as given in US4652547A (Eli Lilly and Company, priority 1984, dated 1987).
# Like-named read-outs stand apart in the source and are kept apart here.
# Experiments:
# [1] = test system: fat cells; details: e.g. fat cells; cited from earlier work
# [2] = test system: hepatic glucose output (HGO); test: Kinetics of activation and deactivation: hepatic glucose output (HGO); type: in vivo, human
# Description: (§1) At this point, the hormone infusion was abruptly stopped, and the glucose concentration was maintained constant until the biologic effects of the infused hormone were no longer detectable.
# [3] = test system: insulin-degrading proteases; details: proteases at subcutaneous injection site of certain diabetics
# [4] = Hormone activity used for dosing; details: basis for administered amounts
# [5] = 0.2 U/kg s.c., five Type II subjects
# [6] = test system: hepatic glucose production; test: Subcutaneous administration to Type II subjects: hepatic glucose production; type: in vivo, human; details: 0.2 U/kg s.c.
# [7] = test system: HGO
# Description: For example, in non-insulin dependent diabetes mellitus (NIDDM), one of the major metabolic abnormalities that maintains the resultant hyperglycemic state is accelerated hepatic glucose production.
# [8] = test system: plasma glucose; test: Response of fasting Type II diabetic patients: plasma glucose and hypoglycemia; details: 0.2 U/kg s.c.
# [9] = test system: glucose disposal; test: Euglycemic glucose-clamp studies: glucose disposal; type: in vivo, human
# Description: Ten healthy control subjects (five female and five male) ranging in age from 25-40 years (mean age=29±3 years) with mean relative body weights of 0.96+0.02 were used.
# With this technique, an antecubital vein is cannulated in an antegrade manner to administer the infusates. A dorsal hand vein is cannulated in a retrograde fashion and kept in a warming device (70° C.) to facilitate venous sampling and provide arterialized venous blood. After insertion of the catheters, [3--3H]-glucose is infused for at least 30 minutes before initiating the hormone infusion. At the onset of hormone infusion, a priming dose of either insulin or proinsulin is administered during the initial 10 minutes in a logarithmically decreasing manner to acutely raise the serum hormone level. The amount of insulin or proinsulin given during this initial 10 minute period is roughly twice that given during each subsequent 10 minute interval by a continuous hormone infusion. […] The overall glucose disposal rate is assessed isotopically for each 20 minute interval of the study.
# On one day, each subject received a 5.0 μg/M2/min (120 mU/M2/min) insulin infusion over a 6 hour period. […] Each proinsulin infusion was carried out for 300 minutes, with the quantitation of its biological effects based on measurements made during the 5th hour of each study. […]
# [10] = Description: (§2) J. Physiol. 237:E214-E223 (1979). With this technique, an antecubital vein is cannulated in an antegrade manner to administer the infusates. A dorsal hand vein is cannulated in a retrograde fashion and kept in a warming device (70° C.) to facilitate venous sampling and provide arterialized venous blood. After insertion of the catheters, [3--3H]-glucose is infused for at least 30 minutes before initiating the hormone infusion. At the onset of hormone infusion, a priming dose of either insulin or proinsulin is administered during the initial 10 minutes in a logarithmically decreasing manner to acutely raise the serum hormone level. The amount of insulin or proinsulin given during this initial 10 minute period is roughly twice that given during each subsequent 10 minute interval by a continuous hormone infusion. The serum glucose is maintained between 80 and 90 mg/dl throughout the study period with a coefficient of variation of less than 5% by means of a variable rate of infusion of 20% dextrose. The overall glucose disposal rate is assessed isotopically for each 20 minute interval of the study.
# Each subject underwent a total of 8 euglycemic glucose clamp studies, each performed on a separate day. Insulin infusion rates of 15, 40, 120, and 240 mU/M2/min were utilized to construct a dose response curve for insulin action. With this approach an attempt was made to achieve steady state insulin concentrations of 40 to 800 μU/ml (Table 1). Each subject was also studied with four different proinsulin infusions. […] Hepatic glucose output was quantitated in the basal state and during each clamp study using a primed continuous infusion of [3--3H]glucose. […] The dose response relationship for insulin and proinsulinmediated suppression of hepatic glucose output was determined by calculating the percent suppression of basal hepatic glucose output at each steady state hormone concentration obtained during the euglycemic clamp studies.
# [11] = remark: listed apart in the source
# Description: as §1
# [12] = test system: peripheral glucose uptake; test: Kinetics of activation and deactivation: peripheral glucose uptake; type: in vivo, human
# Description: Marked differences between the two hormones were noted when biologic activity was studied.
# as §1
# [13] = test system: hepatic glucose output; test: Euglycemic glucose-clamp studies: suppression of hepatic glucose output; type: in vivo, human
# Description: as §2, with “The amount of insulin or proinsulin given during this initial 10 minute period is roughly twice that given during each subsequent 10 minute interval by a continuous hormone infusion. The serum glucose is maintained between 80 and 90 mg/dl throughout the study period with a coefficient of variation of less than 5% by means of a variable rate of infusion of 20% dextrose.” left out
# Each subject underwent a total of 8 euglycemic glucose clamp studies, each performed on a separate day. […] Hepatic glucose output was quantitated in the basal state and during each clamp study using a primed continuous infusion of [3--3H]glucose. […] The dose response relationship for insulin and proinsulinmediated suppression of hepatic glucose output was determined by calculating the percent suppression of basal hepatic glucose output at each steady state hormone concentration obtained during the euglycemic clamp studies.
# [14] = Study A: insulin 15 mU/M^2/min, proinsulin 2.75 μg/M^2/min
substance,measurement,setting,value
human proinsulin,Internalization into target tissues,[1],internalized into target tissues
same,t 1/2 of deactivation of effect to inhibit HGO,[2]; after stopping 5 hour infusion,3.83 ± 0.317 h
same,"Time for HGO to return to baseline values, by extrapolation of the curve",[2]; after stopping infusion,> 6 h
same,Time until decline in effect to suppress HGO could be detected,[2]; after stopping infusion,120 min
same,Degradation by insulin-degrading proteases,[3],not degraded
same,Hormone activity,[4],4 IU/mg
same,Mean peak hormone blood level,[5],6.8 pmol/mL
same,Time of mean peak hormone blood level,[5],230 ± 33 min
same,Effect on hepatic glucose production,[6],suppressed into the normal range
same,Time of maximum suppression of hepatic glucose production,[6],264 ± 31 min
same,Minimum hepatic glucose production,[6]; basal 3.83±0.6,1.21 ± 0.2 mg/kg/min
same,Expected suppression of HGO,"[7]; NIDDM subjects, circulating concentration approximately 1.5 2 pmol/ml",approximately 50%
same,Expected duration of adequate glycemic control,"[7]; sustained level of 1.5-2 pmol/ml for about 3 hours, CSII or single s.c. injection",8 to 10 h
same,Blood glucose level to which each subject was lowered,[8]; five fasting Type II subjects,80 to 110 mg/dL
same,Plasma Glucose,"[8]; Mean of subjects (mean total dose 18.7 I.U.), 0 min after injection",245 mg/dL
same,Plasma Glucose,"[8]; Mean of subjects (mean total dose 18.7 I.U.), 40 min after injection",235 mg/dL
same,Plasma Glucose,"[8]; Mean of subjects (mean total dose 18.7 I.U.), 80 min after injection",221 mg/dL
same,Plasma Glucose,"[8]; Mean of subjects (mean total dose 18.7 I.U.), 120 min after injection",205 mg/dL
same,Plasma Glucose,"[8]; Mean of subjects (mean total dose 18.7 I.U.), 160 min after injection",188 mg/dL
same,Plasma Glucose,"[8]; Mean of subjects (mean total dose 18.7 I.U.), 200 min after injection",167 mg/dL
same,Plasma Glucose,"[8]; Mean of subjects (mean total dose 18.7 I.U.), 280 min after injection",129 mg/dL
same,Plasma Glucose,"[8]; Mean of subjects (mean total dose 18.7 I.U.), 300 min after injection",113 mg/dL
same,Plasma Glucose,"[8]; Mean of subjects (mean total dose 18.7 I.U.), 360 min after injection",102 mg/dL
same,Plasma Glucose,"[8]; Mean of subjects (mean total dose 18.7 I.U.), 400 min after injection",95 mg/dL
same,Plasma Glucose,"[8]; Mean of subjects (mean total dose 18.7 I.U.), 440 min after injection",92 mg/dL
same,Plasma Glucose,"[8]; Mean of subjects (mean total dose 18.7 I.U.), 480 min after injection",96 mg/dL
same,Plasma Glucose,"[8]; subject (total dose 15.0 I.U.), 0 min after injection",332 mg/dL
same,Plasma Glucose,"[8]; subject (total dose 15.0 I.U.), 40 min after injection",328 mg/dL
same,Plasma Glucose,"[8]; subject (total dose 15.0 I.U.), 80 min after injection",308 mg/dL
same,Plasma Glucose,"[8]; subject (total dose 15.0 I.U.), 120 min after injection",288 mg/dL
same,Plasma Glucose,"[8]; subject (total dose 15.0 I.U.), 160 min after injection",272 mg/dL
same,Plasma Glucose,"[8]; subject (total dose 15.0 I.U.), 200 min after injection",247 mg/dL
same,Plasma Glucose,"[8]; subject (total dose 15.0 I.U.), 240 min after injection",210 mg/dL
same,Plasma Glucose,"[8]; subject (total dose 15.0 I.U.), 280 min after injection",174 mg/dL
same,Plasma Glucose,"[8]; subject (total dose 15.0 I.U.), 360 min after injection",94 mg/dL
same,Plasma Glucose,"[8]; subject four (total dose 27.2 I.U.), 0 min after injection",159 mg/dL
same,Plasma Glucose,"[8]; subject four (total dose 27.2 I.U.), 40 min after injection",144 mg/dL
same,Plasma Glucose,"[8]; subject four (total dose 27.2 I.U.), 120 min after injection",128 mg/dL
same,Plasma Glucose,"[8]; subject four (total dose 27.2 I.U.), 200 min after injection",110 mg/dL
same,Plasma Glucose,"[8]; subject four (total dose 27.2 I.U.), 240 min after injection",101 mg/dL
same,Plasma Glucose,"[8]; subject four (total dose 27.2 I.U.), 280 min after injection",98 mg/dL
same,Plasma Glucose,"[8]; subject four (total dose 27.2 I.U.), 300 min after injection",88 mg/dL
same,Plasma Glucose,"[8]; subject four (total dose 27.2 I.U.), 360 min after injection",84 mg/dL
same,Plasma Glucose,"[8]; subject four (total dose 27.2 I.U.), 400 min after injection",85 mg/dL
same,Plasma Glucose,"[8]; subject four (total dose 27.2 I.U.), 440 min after injection",86 mg/dL
same,Plasma Glucose,"[8]; subject four (total dose 27.2 I.U.), 480 min after injection",88 mg/dL
same,Plasma Glucose,"[8]; subject one (total dose 14.8 I.U.), 0 min after injection",213 mg/dL
same,Plasma Glucose,"[8]; subject one (total dose 14.8 I.U.), 40 min after injection",203 mg/dL
same,Plasma Glucose,"[8]; subject one (total dose 14.8 I.U.), 80 min after injection",187 mg/dL
same,Plasma Glucose,"[8]; subject one (total dose 14.8 I.U.), 160 min after injection",140 mg/dL
same,Plasma Glucose,"[8]; subject one (total dose 14.8 I.U.), 240 min after injection",81 mg/dL
same,Plasma Glucose,"[8]; subject one (total dose 14.8 I.U.), 280 min after injection",77 mg/dL
same,Plasma Glucose,"[8]; subject one (total dose 14.8 I.U.), 300 min after injection",80 mg/dL
same,Plasma Glucose,"[8]; subject one (total dose 14.8 I.U.), 320 min after injection",80 mg/dL
same,Plasma Glucose,"[8]; subject three (total dose 16.3 I.U.), 0 min after injection",290 mg/dL
same,Plasma Glucose,"[8]; subject three (total dose 16.3 I.U.), 40 min after injection",282 mg/dL
same,Plasma Glucose,"[8]; subject three (total dose 16.3 I.U.), 80 min after injection",272 mg/dL
same,Plasma Glucose,"[8]; subject three (total dose 16.3 I.U.), 120 min after injection",250 mg/dL
same,Plasma Glucose,"[8]; subject three (total dose 16.3 I.U.), 160 min after injection",230 mg/dL
same,Plasma Glucose,"[8]; subject three (total dose 16.3 I.U.), 200 min after injection",200 mg/dL
same,Plasma Glucose,"[8]; subject three (total dose 16.3 I.U.), 240 min after injection",183 mg/dL
same,Plasma Glucose,"[8]; subject three (total dose 16.3 I.U.), 280 min after injection",152 mg/dL
same,Plasma Glucose,"[8]; subject three (total dose 16.3 I.U.), 300 min after injection",127 mg/dL
same,Plasma Glucose,"[8]; subject three (total dose 16.3 I.U.), 360 min after injection",101 mg/dL
same,Plasma Glucose,"[8]; subject three (total dose 16.3 I.U.), 400 min after injection",82 mg/dL
same,Plasma Glucose,"[8]; subject three (total dose 16.3 I.U.), 440 min after injection",77 mg/dL
same,Plasma Glucose,"[8]; subject two (total dose 20.0 I.U.), 0 min after injection",231 mg/dL
same,Plasma Glucose,"[8]; subject two (total dose 20.0 I.U.), 40 min after injection",217 mg/dL
same,Plasma Glucose,"[8]; subject two (total dose 20.0 I.U.), 80 min after injection",201 mg/dL
same,Plasma Glucose,"[8]; subject two (total dose 20.0 I.U.), 120 min after injection",191 mg/dL
same,Plasma Glucose,"[8]; subject two (total dose 20.0 I.U.), 160 min after injection",182 mg/dL
same,Plasma Glucose,"[8]; subject two (total dose 20.0 I.U.), 240 min after injection",164 mg/dL
same,Plasma Glucose,"[8]; subject two (total dose 20.0 I.U.), 280 min after injection",143 mg/dL
same,Plasma Glucose,"[8]; subject two (total dose 20.0 I.U.), 300 min after injection",134 mg/dL
same,Plasma Glucose,"[8]; subject two (total dose 20.0 I.U.), 360 min after injection",128 mg/dL
same,Plasma Glucose,"[8]; subject two (total dose 20.0 I.U.), 400 min after injection",117 mg/dL
same,Plasma Glucose,"[8]; subject two (total dose 20.0 I.U.), 440 min after injection",112 mg/dL
same,Plasma Glucose,"[8]; subject two (total dose 20.0 I.U.), 480 min after injection",104 mg/dL
same,Plasma Glucose,"[8]; subject two (total dose 20.0 I.U.), 500 min after injection",100 mg/dL
same,Time to reach steady state rates of glucose disposal,"[9]; 5 subjects, insulin 5.0 μg/M2/min over 6 hours, proinsulin 22.5 μg/M2/min over 8 hours",≤ 5 h
same,Glucose Disposal Rate (Mean ± SE),[9]; [14],122 ± 11 mg/M^2/min
same,Steady State Hormone Levels (Mean ± SEM),"[10]; infusion A: insulin 0.63 μg/M^2/min, proinsulin 2.75 μg/M^2/min",2.55 ± 0.16 pmol/mL
same,Steady State Hormone Levels (Mean ± SEM),"[10]; infusion B: insulin […]^2/min, proinsulin 7.5 μg/M^2/min",6.24 ± 0.49 pmol/mL
same,Steady State Hormone Levels (Mean ± SEM),"[10]; infusion C: insulin 5.0 μg/M^2/min, proinsulin 22.5 μg/M^2/min",21.2 ± 1.4 pmol/mL
same,Steady State Hormone Levels (Mean ± SEM),"[10]; infusion D: insulin 10.0 μg/M^2/min, proinsulin 45.0 μg/M^2/min",40.0 ± 1.9 pmol/mL
same,t 1/2 of clearance from the circulation,"[11]; after stopping 5 hour infusion (human insulin 0.55, human proinsulin 2.75 μg/M^2/min)",0.333 h
same,Time by which hormone concentrations are below biologically effective values,[11]; after stopping infusion,≤ 90 minutes
same,Initial volume of distribution compared to human insulin,[11]; primed continuous infusion,much greater
same,Time to steady state hormone concentration,[11]; primed continuous infusion,90 to 120 min
same,Time of initial peak of hormone concentration,"[11]; primed continuous infusion, all infusion rates",no initial peak of hormone concentration was observed
same,t 1/2 of deactivation of effects on glucose disposal,[12]; after stopping 5 hour infusion,1.45 ± 0.233 h
same,"Decay of effect to stimulate glucose disposal, times more slowly than human insulin",[12]; after stopping infusion,2.2 times
same,Time for glucose disposal rates to return to basal,[12]; following cessation of infusion,160 min
same,Time for effect to stimulate glucose disposal to reach steady state,[12]; hormone infusion,> 5 h
same,Suppression of Hepatic Glucose Output (Mean ± SE),[13]; [14],80 ± 6%
same,Hormone concentration required to achieve 90% suppression of hepatic glucose output,"[13]; steady state serum concentration, euglycemic clamp",3.35 pmol/mL
